Assay results published in patent publication US8685982B2, “Thioamide, amidoxime and amidrazone derivatives as HIV attachment inhibitors” (priority 2011, dated 2014).
Like-named read-outs stand apart in the source and are kept apart here.

Tested on: HIV-1 LAI envelope single-round infectious reporter virus
Assay: Single-round infectious HIV-1 LAI luciferase reporter virus infection of MT2 cells
Type: cell-based
Conditions: Human immunodeficiency virus 1, MT2, 72 h
Description: Virus Production • Human embryonic Kidney cell line, 293T (HEK 293T), was propagated in Dulbecco's Modified Eagle Medium (Invitrogen, Carlsbad, Calif.) containing 10% fetal bovine serum (FBS, Sigma, St. Louis, Mo.). The human T-cell leukemia cell MT2 (AIDS Research and Reference Reagent Program, Cat. 237) was propagated in RPMI 1640 (Invitrogen, Carlsbad, Calif.) containing 10% fetal bovine serum (FBS, Hyclone, Logan, Utah)
Virus Infection • Single-round infectious reporter virus was produced by co-transfecting HEK 293T cells with plasmide expressing the HIV-1 LAI envelope along with a plasmid containing an HIV-1 LAI proviral cDNA with the envelope gene replaced by a firefly luciferase reporter gene (Chen et al., Ref 41). Transfections were performed using lipofectAMINE PLUS reagent as described by the manufacturer (Invitrogen, Carlsbad, Calif.). Experimental Procedure • 1. MT2 cells were plated in black, 384 well plates at a cell density of 5×10^3 cells per well in 25 μl RPMI 1640 containing 10% FBS. • 2. Compound (diluted in dimethylsulfoxide and growth medium) was added to cells at 12.5 μl/well, so that the final assay concentration would be ≦50 nM. • 3. 12.5 μl of single-round infectious reporter virus in Dulbecco's Modified Eagle Medium was added to the plated cells and compound at an approximate multiplicity of infection (MOI) of 0.01, resulting in a final volume of 50 μl per well. • 4. Virus-infected cells were incubated at 37 degrees Celsius in a CO2 incubator and harvested 72 h after infection. • 5. Viral infection was monitored by measuring luciferase expression in the infected cells using a luciferase reporter gene assay kit (Steady-Glo, Promega, Madison, Wis.) as described by the manufacturer. Luciferase activity was then quantified by measuring luminescence using an EnVision Multilabel Plate Readers (PerkinElmer, Waltham, Mass.). • 6. The percent inhibition for each compound was calculated by quantifying the level of luciferase expression in cells infected in the presence of each compound as a percentage of that observed for cells infected in the absence of compound and subtracting such a determined value from 100. • 7. An EC50 provides a method for comparing the antiviral potency of the compounds of this disclosure. The effective concentration for fifty percent inhibition (EC50) was calculated with the Microsoft Excel Xlfit curve fitting software. For each compound, curves were generated from percent inhibition calculated at 10 different concentrations by using a four parameter logistic model (model 205). Table 1 is the key for the data in Table 2.

[1] = read-out: EC50 Group from Table 1

For CN(C)c1ccc(C(=S)N2CCN(C(=O)C(=O)c3c[nH]c4cccc(F)c34)CC2)cc1 [Compound 1001], the EC50 [1] was > 500 nM.
With CN(C)N=C(c1ccccc1)N1CCN(C(=O)C(=O)c2c[nH]c3c(-n4ccnn4)ncc(F)c23)CC1 [Compound 1003] the EC50 [1] was < 500 nM.
With O=C(C(=O)N1CCN(C(=S)c2ccccc2)CC1)c1c[nH]c2c(-n3ccnn3)ncc(F)c12 [Compound 2001, 1-(4-fluoro-7-(1H-1,2,3-triazol-1-yl)-1H-pyrrolo[2,3-c]pyridin-3-yl)-2-(4-(phenylcarbonothioyl)piperazin-1-yl)ethane-1,2-dione] the EC50 was 0.027 nM and the EC50 [1] was < 500 nM.
With CON=C(c1ccccc1)N1CCN(C(=O)C(=O)c2c[nH]c3c(-n4ccnn4)ncc(F)c23)CC1 [Compound 2002, 1-(4-fluoro-7-(1H-1,2,3-triazol-1-yl)-1H-pyrrolo[2,3-c]pyridin-3-yl)-2-(4-((methoxyimino)(phenyl)methyl)piperazin-1-yl)ethane-1,2-dione] the EC50 [1] was < 500 nM.
For CON=C(c1ccccc1)N1CCN(C(=O)C(=O)c2c[nH]c3c(-n4cnc(C)n4)ncc(OC)c23)CC1 [Compound 2004, 1-(4-methoxy-7-(3-methyl-1H-1,2,4-triazol-1-yl)-1H-pyrrolo[2,3-c]pyridin-3-yl)-2-(4-((methoxyimino)(phenyl)methyl)piperazin-1-yl)ethane-1,2-dione], the EC50 was 0.019 nM and the EC50 [1] was < 500 nM.
For O=C(C(=O)N1CCN(C(=NO)c2ccccc2)CC1)c1c[nH]c2c(-n3ccnn3)ncc(F)c12 [Compound 2005, 1-(4-fluoro-7-(1H-1,2,3-triazol-1-yl)-1H-pyrrolo[2,3-c]pyridin-3-yl)-2-(4-((hydroxyimino)(phenyl)methyl)piperazin-1-yl)ethane-1,2-dione], the EC50 was 0.121 nM and the EC50 [1] was < 500 nM.
